Where two headings read alike, the source gives them in different places.
Key:
[1] = type: physicochemical; conditions: for ThT Cat. / ThT-Fluorescence (categorical): ThT-active if fluorescence at least twice the control
Summary of the method: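 Preformed peptide fibrils (1 mg/mL) mixed with 50 µM ThT in PBS, 15 min at RT, fluorescence ex 440/em 488 nm versus PBS blank, triplicates. Zeta potential: peptides at 1 mg/mL in PBS pH 7.4, aged 1 d at RT, diluted in 1 mM KCl, Smoluchowski from electrophoretic mobility.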

[2] = Turbidity, derived count rate of scattered light; type: physicochemical; conditions: for Count Rate / kcps: derived count rate of scattered light at 633 nm, 173°, from zeta-potential measurement, 0.1 mg/mL in 1 mM KCl after 1 d at 1 mg/mL in PBS, turbidity / microscopic aggregation, mean of triplicate
Summary of the method: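 Samples: 1 mg/mL in PBS pH 7.4 (from DMSO), 1 d at RT, then diluted in 1 mM KCl immediately before measurement. Triplicates, two independent runs averaged.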

[3] = Log10 of derived count rate of scattered light (turbidity)
[4] = turbidity, Log10 of derived count rate of scattered light, Figure 3A source data
[5] = turbidity, log10 of derived count rate of scattered light

MDQMDQMDQMDQMDQ
Tht category (> 2 to blank = +) ([1]; Fig S10 panel D): 0 (ThT-inactive (N-Fold <2))
ThT Cat. ([1]; Fig S10 panel E): 0 (ThT-inactive (N-Fold <2))
Tht category (> 2 to blank = +) ([1]; FigS12 panel A): 0 (ThT-inactive (N-Fold <2))
ThT Cat, ([1]; FigS12 panel B): 0 (ThT-inactive (N-Fold <2))
ThT Cat, ([1]; ThT category, 1 if Rel. ThT >2): 0 (ThT-inactive (N-Fold <2))
ThT Cat. ([1]; ThT category, 1 if Rel. ThT >2): 0 (ThT-inactive (N-Fold <2))
ThT Cat. / ThT-Fluorescence (categorical) [1]: 0 (ThT-inactive (N-Fold <2))
Log10 Count Rate [2, 3]: 0.9823
Count Rate / kcps [2]: 10 kcps
Log10 Count Rate [2, 4]: 0.9823
Log10 Count Rate [2, 5]: 0.9823

MKFKFQF
Tht category (> 2 to blank = +) ([1]; Fig S10 panel D): 0 (ThT-inactive (N-Fold <2))
ThT Cat. ([1]; Fig S10 panel E): 0 (ThT-inactive (N-Fold <2))
Tht category (> 2 to blank = +) ([1]; FigS12 panel A): 0 (ThT-inactive (N-Fold <2))
ThT Cat, ([1]; FigS12 panel B): 0 (ThT-inactive (N-Fold <2))
ThT Cat, ([1]; ThT category, 1 if Rel. ThT >2): 0 (ThT-inactive (N-Fold <2))
ThT Cat. ([1]; ThT category, 1 if Rel. ThT >2): 0 (ThT-inactive (N-Fold <2))
ThT Cat. / ThT-Fluorescence (categorical) [1]: 0 (ThT-inactive (N-Fold <2))
Log10 Count Rate [2, 3]: 2.0933
Count Rate / kcps [2]: 124 kcps
Log10 Count Rate [2, 4]: 2.0933
Log10 Count Rate [2, 5]: 2.0933

MKFM
Tht category (> 2 to blank = +) ([1]; Fig S10 panel D): 0 (ThT-inactive (N-Fold <2))
Tht category (> 2 to blank = +) ([1]; FigS12 panel A): 0 (ThT-inactive (N-Fold <2))
ThT Cat, ([1]; FigS12 panel B): 0 (ThT-inactive (N-Fold <2))
ThT Cat, ([1]; ThT category, 1 if Rel. ThT >2): 0 (ThT-inactive (N-Fold <2))
ThT Cat. ([1]; ThT category, 1 if Rel. ThT >2): 0 (ThT-inactive (N-Fold <2))
ThT Cat. / ThT-Fluorescence (categorical) [1]: 0 (ThT-inactive (N-Fold <2))
Log10 Count Rate [2, 3]: 2.1165
Count Rate / kcps [2]: 131 kcps
Log10 Count Rate [2, 4]: 2.1165
Log10 Count Rate [2, 5]: 2.1165

NMWQKAKAQA
Tht category (> 2 to blank = +) ([1]; Fig S10 panel D): 1 (ThT. Cat is 1, if Rel. ThT >2)
Tht category (> 2 to blank = +) ([1]; FigS12 panel A): 1 (ThT. Cat is 1, if Rel. ThT >2)
ThT Cat, ([1]; FigS12 panel B): 1 (ThT. Cat is 1, if Rel. ThT >2)
ThT Cat, ([1]; ThT category, 1 if Rel. ThT >2): 1 (ThT. Cat is 1, if Rel. ThT >2)
ThT Cat. ([1]; ThT category, 1 if Rel. ThT >2): 1 (ThT. Cat is 1, if Rel. ThT >2)
ThT Cat. / ThT-Fluorescence (categorical) [1]: 1 (ThT. Cat is 1, if Rel. ThT >2)
Log10 Count Rate [2, 3]: 2.384
Count Rate / kcps [2]: 242 kcps
Log10 Count Rate [2, 4]: 2.384
Log10 Count Rate [2, 5]: 2.384

NMWQKFKFQF
Tht category (> 2 to blank = +) ([1]; Fig S10 panel D): 0 (ThT-inactive (N-Fold <2))
ThT Cat, ([1]; ThT category, 1 if Rel. ThT >2): 0 (ThT-inactive (N-Fold <2))
ThT Cat. ([1]; ThT category, 1 if Rel. ThT >2): 0 (ThT-inactive (N-Fold <2))
ThT Cat. / ThT-Fluorescence (categorical) [1]: 0 (ThT-inactive (N-Fold <2))
Log10 Count Rate [2, 3]: 4.148
Count Rate / kcps [2]: 14045 kcps
Log10 Count Rate [2, 4]: 4.148
Log10 Count Rate [2, 5]: 4.148

NMWQKIKIQI
Tht category (> 2 to blank = +) ([1]; Fig S10 panel D): 1 (ThT. Cat is 1, if Rel. ThT >2)
ThT Cat, ([1]; ThT category, 1 if Rel. ThT >2): 1 (ThT. Cat is 1, if Rel. ThT >2)
ThT Cat. ([1]; ThT fluorescence category, 1 if Rel. ThT >2): 1 (ThT. Cat is 1, if Rel. ThT >2)
ThT Cat. / ThT-Fluorescence (categorical) [1]: 1 (ThT. Cat is 1, if Rel. ThT >2)
Log10 Count Rate [2, 3]: 4.001
Count Rate / kcps [2]: 10024 kcps
Log10 Count Rate [2, 4]: 4.001
Log10 Count Rate [2, 5]: 4.001

NMWQKIKQII
Tht category (> 2 to blank = +) ([1]; Fig S10 panel D): 0 (ThT-inactive (N-Fold <2))
Tht category (> 2 to blank = +) ([1]; FigS12 panel A): 0 (ThT-inactive (N-Fold <2))
ThT Cat, ([1]; FigS12 panel B): 0 (ThT-inactive (N-Fold <2))
ThT Cat, ([1]; ThT category, 1 if Rel. ThT >2): 0 (ThT-inactive (N-Fold <2))
ThT Cat. ([1]; ThT category, 1 if Rel. ThT >2): 0 (ThT-inactive (N-Fold <2))
ThT Cat. / ThT-Fluorescence (categorical) [1]: 0 (ThT-inactive (N-Fold <2))
Log10 Count Rate [2, 3]: 2.992
Count Rate / kcps [2]: 982 kcps
Log10 Count Rate [2, 4]: 2.992
Log10 Count Rate [2, 5]: 2.992

NMWQKVGTPL
Tht category (> 2 to blank = +) ([1]; Fig S10 panel D): 1 (ThT. Cat is 1, if Rel. ThT >2)
Tht category (> 2 to blank = +) ([1]; FigS12 panel A): 1 (ThT. Cat is 1, if Rel. ThT >2)
ThT Cat, ([1]; FigS12 panel B): 1 (ThT. Cat is 1, if Rel. ThT >2)
ThT Cat, ([1]; ThT category, 1 if Rel. ThT >2): 1 (ThT. Cat is 1, if Rel. ThT >2)
ThT Cat. ([1]; ThT category, 1 if Rel. ThT >2): 1 (ThT. Cat is 1, if Rel. ThT >2)
ThT Cat. / ThT-Fluorescence (categorical) [1]: 1 (ThT. Cat is 1, if Rel. ThT >2)
Log10 Count Rate [2, 3]: 1.431
Count Rate / kcps [2]: 27 kcps
Log10 Count Rate [2, 4]: 1.431
Log10 Count Rate [2, 5]: 1.431

PPFHPPPFHP
Tht category (> 2 to blank = +) ([1]; Fig S10 panel D): 0 (ThT-inactive (N-Fold <2))
Tht category (> 2 to blank = +) ([1]; FigS12 panel A): 0 (ThT-inactive (N-Fold <2))
ThT Cat, ([1]; FigS12 panel B): 0 (ThT-inactive (N-Fold <2))
ThT Cat, ([1]; ThT category, 1 if Rel. ThT >2): 0 (ThT-inactive (N-Fold <2))
ThT Cat. ([1]; ThT category, 1 if Rel. ThT >2): 0 (ThT-inactive (N-Fold <2))
ThT Cat. / ThT-Fluorescence (categorical) [1]: 0 (ThT-inactive (N-Fold <2))
Log10 Count Rate [2, 3]: 1.772
Count Rate / kcps [2]: 59 kcps
Log10 Count Rate [2, 4]: 1.772
Log10 Count Rate [2, 5]: 1.772

QCKAKAQA
Tht category (> 2 to blank = +) ([1]; Fig S10 panel D): 0 (ThT-inactive (N-Fold <2))
Tht category (> 2 to blank = +) ([1]; FigS12 panel A): 0 (ThT-inactive (N-Fold <2))
ThT Cat, ([1]; FigS12 panel B): 0 (ThT-inactive (N-Fold <2))
ThT Cat, ([1]; ThT category, 1 if Rel. ThT >2): 0 (ThT-inactive (N-Fold <2))
ThT Cat. ([1]; ThT category, 1 if Rel. ThT >2): 0 (ThT-inactive (N-Fold <2))
ThT Cat. / ThT-Fluorescence (categorical) [1]: 0 (ThT-inactive (N-Fold <2))
Log10 Count Rate [2, 3]: 3.12
Count Rate / kcps [2]: 1319 kcps
Log10 Count Rate [2, 4]: 3.12
Log10 Count Rate [2, 5]: 3.12

QCKFKFQF
Tht category (> 2 to blank = +) ([1]; Fig S10 panel D): 1 (ThT. Cat is 1, if Rel. ThT >2)
ThT Cat, ([1]; ThT category, 1 if Rel. ThT >2): 1 (ThT. Cat is 1, if Rel. ThT >2)
ThT Cat. ([1]; ThT category, 1 if Rel. ThT >2): 1 (ThT. Cat is 1, if Rel. ThT >2)
ThT Cat. / ThT-Fluorescence (categorical) [1]: 1 (ThT. Cat is 1, if Rel. ThT >2)
Log10 Count Rate [2, 3]: 3.426
Count Rate / kcps [2]: 2669 kcps
Log10 Count Rate [2, 4]: 3.426
Log10 Count Rate [2, 5]: 3.426

QCKFKFQFNM
Tht category (> 2 to blank = +) ([1]; Fig S10 panel D): 1 (ThT. Cat is 1, if Rel. ThT >2)
ThT Cat. ([1]; Fig S10 panel E): 1 (ThT. Cat is 1, if Rel. ThT >2)
ThT Cat, ([1]; ThT category, 1 if Rel. ThT >2): 1 (ThT. Cat is 1, if Rel. ThT >2)
ThT Cat. ([1]; ThT category, 1 if Rel. ThT >2): 1 (ThT. Cat is 1, if Rel. ThT >2)
ThT Cat. / ThT-Fluorescence (categorical) [1]: 1 (ThT. Cat is 1, if Rel. ThT >2)
Log10 Count Rate [2, 3]: 3.565
Count Rate / kcps [2]: 3670 kcps
Log10 Count Rate [2, 4]: 3.565
Log10 Count Rate [2, 5]: 3.565

QCKFKFQFNMWQ
Tht category (> 2 to blank = +) ([1]; Fig S10 panel D): 0 (ThT-inactive (N-Fold <2))
ThT Cat, ([1]; ThT category, 1 if Rel. ThT >2): 0 (ThT-inactive (N-Fold <2))
ThT Cat. ([1]; ThT category, 1 if Rel. ThT >2): 0 (ThT-inactive (N-Fold <2))
ThT Cat. / ThT-Fluorescence (categorical) [1]: 0 (ThT-inactive (N-Fold <2))
Log10 Count Rate [2, 3]: 3.082
Count Rate / kcps [2]: 1208 kcps
Log10 Count Rate [2, 4]: 3.082
Log10 Count Rate [2, 5]: 3.082

QCKIKIQI
Tht category (> 2 to blank = +) ([1]; Fig S10 panel D): 1 (ThT. Cat is 1, if Rel. ThT >2)
ThT Cat, ([1]; ThT category, 1 if Rel. ThT >2): 1 (ThT. Cat is 1, if Rel. ThT >2)
ThT Cat. ([1]; ThT category, 1 if Rel. ThT >2): 1 (ThT. Cat is 1, if Rel. ThT >2)
ThT Cat. / ThT-Fluorescence (categorical) [1]: 1 (ThT. Cat is 1, if Rel. ThT >2)
Log10 Count Rate [2, 3]: 4.094
Count Rate / kcps [2]: 12427 kcps
Log10 Count Rate [2, 4]: 4.094
Log10 Count Rate [2, 5]: 4.094

QCKIKIQINMWQ
Tht category (> 2 to blank = +) ([1]; Fig S10 panel D): 1 (ThT. Cat is 1, if Rel. ThT >2)
ThT Cat. ([1]; Fig S10 panel E): 1 (ThT. Cat is 1, if Rel. ThT >2)
ThT Cat, ([1]; ThT category, 1 if Rel. ThT >2): 1 (ThT. Cat is 1, if Rel. ThT >2)
ThT Cat. ([1]; ThT category, 1 if Rel. ThT >2): 1 (ThT. Cat is 1, if Rel. ThT >2)
ThT Cat. / ThT-Fluorescence (categorical) [1]: 1 (ThT. Cat is 1, if Rel. ThT >2)
Log10 Count Rate [2, 3]: 3.918
Count Rate ([2]; T0, mean of n = 3): 9558.2 kcps
Count Rate ([2]; T2m, mean of n = 3): 6927 kcps
Count Rate / kcps [2]: 8271 kcps
Log10 Count Rate ([2]; logarithm of count rate in kcps): 3.918
Log10 Count Rate [2, 4]: 3.918
Log10 Count Rate [2, 5]: 3.918

Source: publication PMC10447463, “Data-mining unveils structure–property–activity correlation of viral infectivity enhancing self-assembling peptides” (Nature Communications, 2023)
